Data as given in patent US20230263822A1, “MODULATION OF FACTOR 11 EXPRESSION” (Ionis Pharmaceuticals, Inc., priority 2008, published 2023).

Assays:
Format in all cases: in vivo, BALB/c mice
[1] = tested on: blood coagulation; assay: PT and aPTT, combination with Apixaban (Example 20)
Procedure: PT and aPTT were measured using PPP from mice treated with ISIS 404071 in combination with Apixaban. In the first cohort, ISIS 404071 was administered subcutaneously to BALB/c mice at a dosage of 25 mg/kg twice a week for 3 weeks. Plasma was collected from these mice 5 days after receiving the last dose of ISIS 404071. In the second cohort, Apixaban was administered subcutaneously to BALB/c mice at a dosage of 6 mg/kg twice daily for three days. Plasma was collected from these mice 20 minutes after receiving the last dose of Apixaban. In the third cohort, ISIS 404071 was administered subcutaneously to BALB/c mice at a dosage of 20 mg/kg twice a week for 3 weeks, and Apixaban was administered subcutaneously at a dosage of 6 mg/kg twice daily on the last three days of ISIS 404071 treatment. Plasma was collected from these mice 20 minutes after receiving the last dose of Apixaban. In a fourth cohort, PBS was administered subcutaneously twice a week for three weeks, as a control. Plasma was collected 5 days after the last dose of PBS.
PT and aPTT values provided in Table 32 are reported as International Normalized Ratio (INR) values. […] However, Apixaban and Apixaban combined with ISIS 404071 increased PT. Also shown in Table 32, Apixaban, ISIS 404071, and ISIS 404071 combined with Apixaban increase aPTT.

[2] = tested on: platelet factor-4 (PF-4); assay: Factor 7a protein antidote: PF-4 in FeCl3 induced VT model (Example 24); settings: ISIS 404071 20 mg/kg s.c. twice a week for 3 weeks; human Factor 7a 5 μg/kg fifteen minutes before FeCl3 where given
Procedure: The effect of human Factor 7a (Factor VIIa) protein as an antidote for ISIS 404071 was tested in BALB/c mice. […] Thrombus formation was induced with FeCl3 in all of the mice except the first control group. Fifteen minutes before FeCl3 treatment, the first experimental group was treated with 5 μg/kg of human Factor 7a protein antidote (product no. 407act, American Diagnostica Inc.). Two days after their last dose, all mice were anesthetized with 150 mg/kg of ketamine mixed with 10 mg/kg of xylazine administered by intraperitoneal injection.
In mice undergoing FeCl3 treatment, thrombus formation was induced by applying a piece of filter paper (2×4 mm) pre-saturated with 10% FeCl3 solution directly on the vena cava. After 3 minutes of exposure, the filter paper was removed. Thirty minutes after the filter paper application, a fixed length of the vein containing the thrombus was dissected out for platelet analysis.
Real-time PCR quantification of platelet factor-4 (PF-4) was used to quantify platelets in the vena cava as a measure of thrombus formation. Results are presented as a percentage of PF-4 in antidote treated and untreated mice, as compared to the two PBS-treated control groups.

[3] = Collagenase-induced intracerebral hemorrhage model: hemorrhage volume, neurologic deficit score, mortality (Example 25)
Procedure: In a first cohort, ISIS 404071 was administered subcutaneously to BALB/c mice twice a week for two weeks at a dose 40 mg/kg. […] In a third cohort, ISIS 421208 ([…], 8 mismatches to murine Factor 11, incorporated herein as SEQ ID NO: 14) was administered subcutaneously to BALB/c mice twice a week for two weeks at a dose 40 mg/kg. In a fourth cohort, PBS was administered to BALB/c mice twice a week for two weeks.
Two days after receiving their final dose, all mice in all cohorts were anesthetized with […] of avertin. Next, the mice were injected at −1 mm AP, 1 mm R ML, −4 mm DV from bregma flat skull with a 10 μL Hamilton syringe containing 0.075 U collagenase (150 U/mL). Collagenase was delivered over 5 minutes and the needle was kept in place for an additional 5 minutes to prevent reflux. The mice were then analyzed for hemorrhagic size, neurologic deficit score, and mortality.
Table 37 presents the hemorrhage volume detected in mice after collagenase treatment, Table 38 presents the neurologic deficit score of the mice, and Table 39 presents the mortality rate of the mice. Neurological deficit is measured by a standard scoring system where no deficiency is zero and severe deficit is five.

[4] = BALB/c mice, ISIS 404071 25 or 20 mg/kg, Apixaban 6 mg/kg twice daily
[5] = ISIS 404071 alone 25 mg/kg s.c. twice a week for 3 weeks, Apixaban alone 6 mg/kg s.c. twice daily for three days, combination 20 mg/kg + 6 mg/kg
[6] = collagenase-induced intracerebral hemorrhage, 40 mg/kg twice a week for two weeks

## ISIS 404071: antisense oligonucleotide targeted to murine Factor 11 mRNA, TGGTAATCCACTTTCAGAGG, target start site 869 (chemistry not given here)
[1]; [4]
  PT: not significantly affected
  aPTT: increase aPTT
[1]; [5]
  PT INR: 0.95 INR
  aPTT INR: 1.31 INR
[2]
  PF-4 in vena cava, percentage as compared to PBS controls (thrombus formation): 18%
[3]; 40 mg/kg s.c. twice a week for two weeks
  Hemorrhagic volume after collagenase treatment: 38 mm^3
[3]; 40 mg/kg s.c. twice a week for two weeks, score zero (no deficiency) to five (severe deficit)
  Neurologic Deficit Score after collagenase treatment: 3.8
[3]; ISIS oligonucleotides 40 mg/kg s.c., warfarin 2 mg/kg intraperitoneally, twice a week for two weeks
  % mortality after collagenase treatment: 20%
[3]; [6]
  hemorrhagic size: did not have a significant effect
  mortality: did not have a significant effect
  neurologic deficit score: did not have a significant effect
